Assay results reported in patent publication US4788197A, “Pyrazine derivatives useful as platelet aggregation inhibitors” (Terumo Kabushiki Kaisha, priority 1985, dated 1988).
Like-named read-outs stand apart in the source and are kept apart here.

Legend:
platelet aggregation = experiment: Platelet aggregation-inhibiting action (Born's turbidimetric method, platelet-rich plasma); type: cell-based, rabbit; settings: Oryctolagus cuniculus, 0.05 h
Protocol: Nine volumes of blood was drawn from the carotid artery of a rabbit using a syringe containing one volume of 3.8% solution of sodium citrate. The blood was centrifuged to obtain platelet-rich plasma (PRP: 7×10^5 platelets/μl).
In a cuvette was placed 268 μl of the PRP, which was warmed in an isothermic bath at 37° C. for 2 minutes. To the cuvette was added 2 μl of an ethanol solution of a pyrazine derivative to be tested, followed by an incubation for 3 minutes. To the incubate was added a solution of a platelet-aggregation inducer, arachidonic acid or collagen. Measurement was made by Born's turbidimetric method (for example, see J. Physiol., vol. 168, p. 178, 1968). 50% inhibitory concentration for the platelet aggregation caused by arachidonic acid (50 μmol.) or collagen (10 μg/ml) was given in Table 1 using acetylsalicylic acid as the reference.
The 50% inhibitory concentration as shown in table means the concentration of a solution of the pyrazine derivative required for inhibiting the platelet aggregation to 50% when the platelet aggregation in the absence of a pyrazine derivative is taken as 100%.

cycloxygenase = target: T1, cycloxygenase (Oryctolagus cuniculus, UniProt O97554); experiment: Cycloxygenase inhibiting activity (washed platelets as cycloxygenase source); type: biochemical; settings: washed rabbit platelets, 14C-labelled arachidonic acid, 37° C., 3 minutes; read-out: 50% Inhibitory concentration (cycloxygenase)
T1 construct: The washed platelets thus obtained were employed as a cycloxygenase source; from tissue; host or cells: washed rabbit blood platelets
T1 sequence (O97554 31-606): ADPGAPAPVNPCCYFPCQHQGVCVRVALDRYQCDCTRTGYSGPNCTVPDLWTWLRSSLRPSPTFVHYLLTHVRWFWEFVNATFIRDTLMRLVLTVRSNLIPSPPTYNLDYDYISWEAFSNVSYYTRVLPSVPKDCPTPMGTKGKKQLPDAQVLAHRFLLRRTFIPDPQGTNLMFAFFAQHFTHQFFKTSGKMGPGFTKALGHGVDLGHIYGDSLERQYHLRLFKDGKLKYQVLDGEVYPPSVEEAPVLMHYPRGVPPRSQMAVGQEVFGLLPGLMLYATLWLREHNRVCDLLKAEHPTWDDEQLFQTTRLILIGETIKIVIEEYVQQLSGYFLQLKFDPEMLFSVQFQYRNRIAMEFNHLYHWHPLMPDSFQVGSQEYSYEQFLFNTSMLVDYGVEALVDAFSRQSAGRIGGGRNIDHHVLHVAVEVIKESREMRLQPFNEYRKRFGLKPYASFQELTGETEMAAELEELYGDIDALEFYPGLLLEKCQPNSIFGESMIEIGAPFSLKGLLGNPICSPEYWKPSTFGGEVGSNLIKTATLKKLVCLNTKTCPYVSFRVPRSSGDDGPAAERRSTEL
Protocol: Nine volumes of blood was drawn from the abdominal artery of a rabbit using a syringe containing one volume of 3.8% solution of sodium citrate. Centrifugation of the blood afforded platelet-rich plasma. To the platelet-rich plasma was added 77 mM EDTA solution in a volume of 1/10 per volume of the plasma. The mixture was thoroughly mixed and centrifuged at 2500 rpm for 10 minutes. The supernatant was discarded, and the platelets were suspended in approximately 3 ml of a washing solution which was prepared by dissolving 134 mM of sodium chloride, 15 mM of trisaminomethane, 1 mM of EDTA and 5 mM of D-glucose in twice-distilled water with a pH adjusted with 1N hydrogen chloride to 7.4. The suspension was centrifuged at room temperature at 2000 rpm for 10 minutes. The supernatant was discarded, and the precipitated platelets were re-suspended in a phosphate buffer at pH 8.0 to adjust number of the platelets to 1×10^6 per μl.
The washed platelets thus obtained were employed as a cycloxygenase source.
To 3 μg of arachidonic acid and 0.2 μCi (1 μg) of ^14 C-labelled arachidonic acid placed in a glass-stoppered test tube was added one drop of a propylene glycol/ethanol solution (1:3 by volume). The ethanol was evaporated under nitrogen. To the residue were added 50 μl of a solution to be tested and then 450 μl of the washed platelets. The mixture was reacted at 37° C. for 3 minutes.
To the reaction mixture was added with ice cooling one drop of 1N hydrogen chloride to adjust the pH to 2-3. To the resulting mixture was added 2 ml of ethyl acetate, followed by extraction by shaking for 10 minutes and centrifugal separation at 4° C. at 2500 rpm for 10 minutes.
The supernatant was transferred to a flask and concentrated. The residue was dissolved in 100 μl of ethanol, and the entire solution was spotted on a silica gel thin plate (Merck, 60 F254).
The plate was developed by approximately 18 cm with a developer solution (chloroform/methanol/acetic acid/waters=70:8:1:0.8), followed by measurement by a radiochromatoscanner of the sum of radioactivities of prostaglandin F2α, thromboxan B2, […], prostaglandin D2 and HHT to determine the inhibiting activity.

[1] = aggregation induced by arachidonic acid (50 μmol.), rabbit PRP, 37° C., 3 min incubation, read-out: 50% aggregation inhibitory concentration, Arachidonic acid
[2] = aggregation induced by collagen (10 μg/ml), rabbit PRP, 37° C., 3 min incubation, read-out: 50% aggregation inhibitory concentration, Collagen

IC50 (platelet aggregation; [1])	IC50 (platelet aggregation; [2])	IC50 (cycloxygenase)	Structure (SMILES)	IC50 (platelet aggregation; read-out: 50% aggregation inhibitory concentration, Arachidonic acid)	IC50 (platelet aggregation; read-out: 50% aggregation inhibitory concentration, Collagen)
0.2 µM	5 µM		COc1ccc(-c2ncc(Cc3ccccc3)nc2-c2ccc(OC)cc2)cc1 [Example 6, 2,3-Bis(p-methoxyphenyl)-5-benzylpyrazine]		
0.025 µM	0.79 µM		COc1ccc(-c2ncc(C(C)C)nc2-c2ccc(OC)cc2)cc1 [Example 7, 2,3-Bis(p-methoxyphenyl)-5-isopropylpyrazine]		
0.084 µM	0.92 µM	62 µM	COc1ccc(-c2nc(C)c(C)nc2-c2ccc(OC)cc2)cc1 [Example 10, 2,3-bis(p-methoxyphenyl)-5,6-dimethylpyrazine]		
0.046 µM	0.64 µM		CCc1cnc(-c2ccc(OC)cc2)c(-c2ccc(OC)cc2)n1 [Example 8, 2,3-bis(p-methoxyphenyl)-5-ethylpyrazine]		
4.5 µM	14 µM		COc1cccc(Cc2cnc(-c3ccccc3)c(-c3ccccc3)n2)c1 [Example 5, 2,3-Diphenyl-5-(m-methoxybenzyl)pyrazine]		
0.44 µM	0.79 µM	86 µM	COc1ccc(-c2ncc(Cc3cccs3)nc2-c2ccc(OC)cc2)cc1 [Example 9, 2,3-Bis(p-methoxyphenyl)-5-(2-thienylmethyl)pyrazine]		

More lines, now with the values behind:

Structure (SMILES)	IC50 (platelet aggregation; [1])	IC50 (platelet aggregation; [2])	IC50 (cycloxygenase)	IC50 (platelet aggregation; read-out: 50% aggregation inhibitory concentration, Arachidonic acid)	IC50 (platelet aggregation; read-out: 50% aggregation inhibitory concentration, Collagen)
Cc1cnc(-c2ccc(Cl)cc2)c(-c2ccc(Cl)cc2)n1 [Example 1, 2,3-bis(p-chlorophenyl)-5-methylpyrazine]	8.5 µM	20 µM			
c1ccc(Cc2cnc(-c3ccccc3)c(-c3ccccc3)n2)cc1 [Example 3, 2,3-diphenyl-5-benzylpyrazine]	8 µM	46 µM			
CC(=O)Oc1ccccc1C(=O)O [Aspirin, acetylsalicylic acid, reference compound]				14 µM	560 µM
COc1ccc(-c2ncc(C)nc2-c2ccc(OC)cc2)cc1 [Example 2, 2,3-bis(p-methoxyphenyl)-5-methylpyrazine]	0.03 µM	0.042 µM	30 µM		
COc1ccc(Cc2cnc(-c3ccccc3)c(-c3ccccc3)n2)cc1 [Example 4, 2,3-Diphenyl-5-(p-methoxybenzyl)pyrazine]	1.7 µM	35 µM	220 µM		
